Values joined by “and” are separate entries in the source; they are usually repeats but may differ in a detail not shown here. Identical values can stand only once.

For orientation: melting point means the temperature of the solid-liquid transition. As for `CP(=O)(O)CC[C@@H](N)C(=O)O` [2-Amino-4-(Hydroxymethyl-Phosphinyl)Butanoic Acid], the melting point stood at 230 °C.
`O=C(Cl)c1c(Cl)cccc1Cl` [2,6-dichlorobenzoyl chloride] had a melting point of 17 °C.
The same measure for `Brc1cc(Br)cc(Br)c1` [1,3,5-tribromobenzene]: 124 °C (2×) and 122 °C; for `CC(C)(C)OC(=O)N[C@](C)(C(=O)O)c1ccc2ccccc2c1` [N-boc-2-(2-naphthyl)-D-alanine]: 98 °C; for `CCCCCCCCO` [1-octanol]: -15 °C.
The same measure for `CC(C)C(C)(C)O` [2,3-dimethyl-2-butanol]: -10 °C; for `NC(=O)c1ccccc1N` [o-aminobenzamide]: 113 °C; for `CCOC(=O)c1cccnc1` [ethyl nicotinate]: 9 °C.
The figure for `O=C(O)\C=C(/C)C` [B,B-dimethylacrylic acid] is 69.5 °C; for `CCC1(C2=CCCCCC2)C(=O)NC(=O)NC1=O` [heptabarbital] it is 174 °C; for `O=[N+]([O-])c1ccc(Br)cc1` [1-bromo-4-nitrobenzene] it is 126 °C.
In turn, `O=c1cc(C(F)(F)F)c2ccc(O)cc2o1` [7-hydroxy-4-(trifluoromethyl)coumarin] registered a melting point of 179 °C.
The molecule `C=C[C@H]1C[N@@]2CC[C@H]1C[C@@H]2[C@@H](O)c1ccnc2ccc(OC)cc12` [quinidine] returned a melting point of 170 °C.
The figure for `O=[N+]([O-])c1cc([N+](=O)[O-])c2ccccc2c1O` [2,4-dinitro-1-naphthol] is 132 °C; for `O=C(O)C=Cc1ccco1` [b-2-Furylacrylic Acid] it is 133 °C.
Take `Oc1c(F)c(F)c(O)c(F)c1F` [2,3,5,6-tetrafluorohydroquinone]: the melting point was determined as 169 °C.
The same measure for `CC(O[S+]([O-])C(C)(C)C)C(O)(c1ccccc1)c1ccccc1` (stereo unspecified): 136 °C.
The figure for `CC(CCc1oc2c(Br)cc(Br)cc2c1-c1ccc(C)o1)=NO` is 158 °C; for `O=c1[nH]c(=O)n([C@@H]2O[C@H](CO)[C@@H](O)[C@H]2O)cc1Br` [5-bromouridine] it is 192 °C.
The figure for `CCCCCCCCCCCCS[C@H](C(=O)Nc1cc(C)c(O)c(C)c1C)c1ccccc1` [eflucimibe] is -144 °C.
In turn, `CC(C)C1=C(O)C(=O)C2=C(CCC3C(C)(C)CCCC23C)C1=O` (stereo not drawn) [7alpha-12-Hydroxy-8,12-abietadiene-11,14-dione] had a melting point of 181 °C.
The same measure for `COCOC` [dimethoxymethane]: -105 °C; for `COc1ccc(Cl)cc1B(O)O` [5-chloro-2-methoxybenzeneboronic acid]: 138 °C.
The same measure for `Clc1ccc(NC(/N)=NC(N)=NC(C)C)cc1` [Proguanil]: 129 °C.
`Clc1cc(Cl)cc(Cl)c1` [1,3,5-trichlorobenzene]: the melting point was 65 °C (2×) and 64 °C.
As to `CS(C)=O` [Dimethyl sulfoxide], the melting point was 18.4 °C and 18.5 °C.
The figure for `CC(=O)Cl` [acetyl_chloride] is -112 °C.
The figure for `O=C(O)/C(=C/c1ccccc1)c1ccccc1` [alpha-phenylcinnamic acid] is 173 °C; for `Nc1ccc(I)cn1` [2-amino-5-iodopyridine] it is 128 °C.
`CC(=O)N[C@@H](Cc1ccccc1)C(=O)O` [N-acetyl-l-phenylalanine]: the melting point came out at 168 °C.
The same measure for `O=Cc1ccccc1Cl` [2-chlorobenzaldehyde]: 10 °C; for `NC(=O)c1sccc1N` [3-aminothiophene-2-carboxamide]: 121 °C; for `Cc1ccc(C(N)=O)cc1C` [3,4-dimethylbenzamide]: 102 °C.
The figure for `Oc1c(Cl)c(Cl)c(Cl)c(Cl)c1Cl` [Pentachlorophenol] is 190 °C; for `O=S(=O)(Cl)c1ccccc1` [Benzenesulfonyl chloride] it is 15 °C; for `Nc1nnc(C2CC2)s1` [2-amino-5-cyclopropyl-1,3,4-thiadiazole] it is 214 °C.
`Nc1ccc(Cl)cc1Cl` [2,4-dichloroaniline] came in with a melting point of 61 °C.
The same measure for `COC(CN1CCN(CC(O)C(OC)c2ccccc2)CC1)c1ccccc1` (stereo unspecified) [zipeprol]: 83 °C; for `C/C=C/c1ccc(OC)cc1` [trans-anethole]: 22 °C; for `O=P1(NCCCl)OCCCN1CCCl` (stereo unspecified) [ifosfamide]: 45.5 °C and 48 °C.
The figure for `O=C(C(=O)c1ccccc1)c1ccccc1` [Benzil] is 94.5 °C; for `O[C@H]1CCCC[C@@H]1O` (relative stereo) [trans-1,2-cyclohexanediol] it is 104 °C; for `CCCCCCCCCCCCCC` [N-tetradecane] it is 6 °C.
The same measure for `O=C(O)C(Cl)(Cl)Cl` [Trichloroacetic acid]: 57 °C; for `O=[N+]([O-])OCC(CO[N+](=O)[O-])O[N+](=O)[O-]` [Nitroglycerin]: 13.5 °C; for `CSC(SC)=C(C#N)C#N` [[Bis(Methylthio)Methylene]Malononitrile]: 61 °C.
In the case of `CCCC(C)=O` [2-pentanone], the melting point is -78 °C.
Take `O=S(=O)(Cl)c1cccc(Cl)c1Cl` [2,3-dichlorobenzenesulfonyl chloride]: the melting point worked out at 60 °C.
The same measure for `Nc1ccccc1[N+](=O)[O-]` [2-nitroaniline]: 72 °C; for `O=C1CCC(=O)CC1` [1,4-cyclohexanedione]: 78 °C; for `COc1ccc(N)cc1` [p-anisidine]: 58 °C.
`NCCN` [ethylenediamine] displayed a melting point of 10 °C.
The figure for `COc1ccc(O)cc1` [4-methoxyphenol] is 56 °C.
On to `Cn1cc[nH]c1=S` [Methimazole], for which the melting point worked out at 146 °C.
`Clc1ccc(-c2ccc(Cl)cc2)cc1` [PCB-15] returned a melting point of 149 °C.
The figure for `OB(O)c1ccc(OC(F)(F)F)cc1` [4-(trifluoromethoxy)benzeneboronic acid] is 123 °C; for `Nc1cc2ccccc2cc1N` [2,3-diaminonaphthalene] it is 195 °C.
The same measure for `ON=Cc1ccccn1` [pyridine-2-carboxaldoxime]: 111 °C; for `CCOC(=O)c1ccc(N)cc1` [ethyl-4-aminobenzoate (benzocaine)]: 89 °C; for `COc1ccc(C(C)=O)c(OC)c1` [2,4-dimethoxyacetophenone]: 41 °C.
In turn, `NC(CO)Cc1ccccc1` (single isomer, unassigned; (-)) [(-)-2-amino-3-phenyl-1-propanol] gave a melting point of 92 °C.
The same measure for `c1ccc2scnc2c1` [benzothiazole]: 2 °C.
The figure for `CCC(=O)c1cc(O)ccc1O` [2',5'-dihydroxypropiophenone] is 98 °C; for `COC(=O)[C@H](CCC(=O)O)NC(=O)OCc1ccccc1` [N-benzyloxycarbonyl-l-glutamic acid 1-methyl ester] it is 67 °C; for `O=S(=O)(Nc1ccccc1Cl)c1ccccc1` [2-chloro-1-phenylsulfonamidobenzene] it is 125 °C.
The figure for `Clc1ccc(-c2ccnc(Cl)c2)cn1` [6,2'-dichloro-3,4'-bipyridine] is 222 °C; for `Oc1cc(C(F)(F)F)nc2ccc(Cl)cc12` [6-chloro-4-hydroxy-2-(trifluoromethyl)quinoline] it is 279 °C; for `O=[N+]([O-])c1ccc(Cl)c([N+](=O)[O-])c1` [1-Chloro-2,4-dinitrobenzene] it is 53 °C.
Molecule `NNC(=O)c1ccc(C(F)(F)F)cc1` [4-(trifluoromethyl)benzhydrazide] yielded a melting point of 119 °C.
In turn, `COc1cc2c(c(OC)c1OC)-c1ccc(OC)c(=O)cc1[C@@H](NC(C)=O)CC2` [colchicine] returned a melting point of 146 °C.
The figure for `OC(CCN1CCCCC1)(c1ccccc1)c1ccccc1` [pridinol] is 120 °C; for `CSC(SC)=C1CCCC(=C(SC)SC)C1=C(C#N)C#N` it is 156 °C.
The same measure for `ON=Cc1ccc(O)cc1` [p-Hydroxybenzaldehyde oxime]: 112 °C; for `CC(C)(C)c1cccc(O)c1` [3-tert-butylphenol]: 45 °C.
`CCCCCC(=O)OC` [Methyl hexanoate] displayed a melting point of -71 °C.
Turning to `CC(C)(C)OC(=O)NCC(=O)O` [N-boc-glycine], the melting point is 89 °C.
The figure for `CCN(CC)c1ccc(N=O)cc1` [N,N-diethyl-4-nitrosoaniline] is 82 °C; for `O=CN1CCOCC1` [4-formylmorpholine] it is 22 °C; for `CC(/C=C(\C)C#Cc1ccccc1)=N/Nc1ccc([N+](=O)[O-])cc1[N+](=O)[O-]` it is 198 °C.
The figure for `Nc1cccc([N+](=O)[O-])c1` [m-nitroaniline] is 114 °C; for `CCCCCCCCCCCCC` [Tridecane] it is -5 °C.
The figure for `O=c1[nH]c(=O)n([C@H]2C[C@H](O)[C@@H](CO)O2)cc1I` [Idoxuridine] is 165 °C; for `O=C(O)CC(CC(=O)O)C(=O)O` [tricarballylic acid] it is 160 °C.
As for `O=Cc1ccccc1O` [salicylaldehyde], the melting point is -7 °C.
The same measure for `Cc1ccc(/C=C(\C(N)=O)c2nc3ccccc3s2)cc1`: 149 °C; for `CC(Oc1cccc(Cl)c1)C(=O)O` (stereo unspecified) [2-(3-chlorophenoxy)propionic acid]: 115 °C; for `CCCCCCCCCC` [Decane]: -30 °C and -29.7 °C.
The figure for `C1COCCO1` [1,4-dioxane] is 12 °C.
For `C1=CC2C(C1)[C@@H]1C=C[C@H]2C1` (stereo partly specified) [Dicyclopentadiene], the melting point worked out at 32.5 °C.
The same measure for `CC(=O)OCCC(C)C` [3-Methylbutyl acetate]: -100 °C.
As for `Cc1ncc([N+](=O)[O-])n1CCO` [metronidazole], the melting point came to 160 °C.

The values above are taken from the Bradley open melting point set (2014).
